{
  "source": "EPA's ToxRefDB 2",
  "key": {"mouse [1]": {"tested_on": "mouse", "details": "Carcinogenicity, cd1, Oral, Feed, dose end: 78 week, group: systemic"}, "dog [2]": {"tested_on": "dog", "details": "Subchronic oral toxicity in nonrodent, beagle, Feed, dose end: 28 day, group: systemic"}, "mouse [3]": {"tested_on": "mouse", "details": "Subchronic oral toxicity in rodents, cd1, Feed, dose end: 90 day"}, "rat [4]": {"tested_on": "rat", "details": "Subchronic oral toxicity in rodents, sprague dawley, Feed, dose end: 90 day, group: systemic"}, "rat [5]": {"tested_on": "rat", "details": "Prenatal developmental toxicity study, sprague dawley, Oral, Gavage/Intubation, dose end: 15 GD"}, "rat [6]": {"tested_on": "rat", "details": "Subchronic oral toxicity in rodents, sprague dawley, Feed, dose end: 13 week, group: systemic"}, "dog [7]": {"tested_on": "dog", "details": "Subchronic oral toxicity in nonrodent, beagle, Feed, dose end: 90 day, group: systemic"}, "rat [8]": {"tested_on": "rat", "details": "Multigenerational reproductive toxicity study, sprague dawley, Oral, Feed, dose end: 2 generation"}, "rat [9]": {"tested_on": "rat", "details": "Combined chronic toxicity/carcinogenicity, other, Oral, Feed, dose end: 24 month, group: systemic"}, "dog [10]": {"tested_on": "dog", "details": "Chronic toxicity, beagle, Oral, Feed, dose end: 52 week, group: systemic"}, "rat [11]": {"tested_on": "rat", "details": "Subchronic oral toxicity in rodents, sprague dawley, Feed, dose end: 13 week, group: systemic, systemic / in life observation / body weight / body weight + systemic / in life observation / body weight / body weight gain + systemic / in…"}, "[12]": {"details": "systemic / in life observation / body weight / body weight + systemic / in life observation / body weight / body weight gain + systemic / …"}, "[13]": {"details": "systemic / pathology microscopic / bone marrow / hyperplasia"}, "[14]": {"details": "systemic / in life observation / body weight / body weight gain"}, "[15]": {"details": "systemic / in life observation / body weight / body weight gain + systemic / in life observation / food consumption / food consumption + …"}, "[16]": {"details": "group: cholinesterase, cholinesterase / cholinesterase / cholinesterase / cholinesterase (che)"}, "[17]": {"details": "group: systemic, systemic / clinical chemistry / glucose / glucose + systemic / in life observation / body weight / body weight + systemic / in life …"}, "[18]": {"details": "systemic / pathology microscopic / spleen / pigmentation"}, "[19]": {"details": "systemic / pathology microscopic / spleen / pigmentation + systemic / in life observation / body weight / body weight + systemic / in life …"}, "[20]": {"details": "group: developmental, developmental / developmental malformation / bone / short"}, "[21]": {"details": "group: maternal, systemic / in life observation / body weight / body weight + systemic / in life observation / body weight / body weight gain + systemic / in…"}, "[22]": {"details": "systemic / pathology microscopic / kidney / inclusion body intranuclear"}, "[23]": {"details": "systemic / pathology microscopic / kidney / inclusion body intranuclear + systemic / in life observation / body weight / body weight + …"}, "[24]": {"details": "systemic / in life observation / body weight / body weight gain + systemic / in life observation / body weight / body weight + systemic / in…"}, "[25]": {"details": "group: offspring, developmental / developmental landmark / preputial separation / preputial separation + systemic / in life observation / body weight / litter…"}, "[26]": {"details": "group: parental, systemic / in life observation / body weight / body weight + systemic / in life observation / body weight / body weight gain + systemic / in…"}, "[27]": {"details": "group: reproductive, reproductive / offspring survival early / litter size / litter size"}, "[28]": {"details": "systemic / in life observation / clinical signs / respiration (rales)"}, "[29]": {"details": "systemic / in life observation / body weight / body weight + systemic / in life observation / body weight / body weight gain + systemic / in…"}},
  "data": [
    {"smiles": "CC(=NC#N)N(C)Cc1ccc(Cl)nc1", "note": "[Acetamiprid]", "values": [
      {"measurement": "LOAEL", "setting": "mouse [1]; [12]", "value": 65.6, "unit": "mg/kg/day"},
      {"measurement": "NOAEL", "setting": "mouse [1]; [12]", "value": 20.3, "unit": "mg/kg/day"},
      {"measurement": "LEL", "setting": "mouse [1]; [13]", "value": 20.3, "unit": "mg/kg/day"},
      {"measurement": "NEL", "setting": "mouse [1]; [13]", "value": "< 20.3", "unit": "mg/kg/day"},
      {"measurement": "LEL", "setting": "dog [2]; [14]", "value": 28, "unit": "mg/kg/day"},
      {"measurement": "LOAEL", "setting": "dog [2]; [14]", "value": 28, "unit": "mg/kg/day"},
      {"measurement": "NEL", "setting": "dog [2]; [15]", "value": 16.7, "unit": "mg/kg/day"},
      {"measurement": "NOAEL", "setting": "dog [2]; [15]", "value": 16.7, "unit": "mg/kg/day"},
      {"measurement": "LEL", "setting": "mouse [3]; [16]", "value": 430, "unit": "mg/kg/day"},
      {"measurement": "LOAEL", "setting": "mouse [3]; [16]", "value": "> 430", "unit": "mg/kg/day"},
      {"measurement": "NEL", "setting": "mouse [3]; [16]", "value": 211, "unit": "mg/kg/day"},
      {"measurement": "NOAEL", "setting": "mouse [3]; [16]", "value": "≥ 430", "unit": "mg/kg/day"},
      {"measurement": "LEL", "setting": "mouse [3]; [17]", "value": 211, "unit": "mg/kg/day"},
      {"measurement": "LOAEL", "setting": "mouse [3]; [17]", "value": 211, "unit": "mg/kg/day"},
      {"measurement": "NEL", "setting": "mouse [3]; [17]", "value": 106, "unit": "mg/kg/day"},
      {"measurement": "NOAEL", "setting": "mouse [3]; [17]", "value": 106, "unit": "mg/kg/day"},
      {"measurement": "LEL", "setting": "rat [4]; [18]", "value": 112, "unit": "mg/kg/day"},
      {"measurement": "LOAEL", "setting": "rat [4]; [18]", "value": 112, "unit": "mg/kg/day"},
      {"measurement": "NEL", "setting": "rat [4]; [19]", "value": 36.5, "unit": "mg/kg/day"},
      {"measurement": "NOAEL", "setting": "rat [4]; [19]", "value": 36.5, "unit": "mg/kg/day"},
      {"measurement": "LEL", "setting": "rat [5]; [20]", "value": 50, "unit": "mg/kg/day"},
      {"measurement": "LOAEL", "setting": "rat [5]; [20]", "value": 50, "unit": "mg/kg/day"},
      {"measurement": "NEL", "setting": "rat [5]; [20]", "value": 16, "unit": "mg/kg/day"},
      {"measurement": "NOAEL", "setting": "rat [5]; [20]", "value": 16, "unit": "mg/kg/day"},
      {"measurement": "LEL", "setting": "rat [5]; [21]", "value": 50, "unit": "mg/kg/day"},
      {"measurement": "LOAEL", "setting": "rat [5]; [21]", "value": 50, "unit": "mg/kg/day"},
      {"measurement": "NEL", "setting": "rat [5]; [21]", "value": 16, "unit": "mg/kg/day"},
      {"measurement": "NOAEL", "setting": "rat [5]; [21]", "value": 16, "unit": "mg/kg/day"},
      {"measurement": "LEL", "setting": "rat [6]; [22]", "value": 250, "unit": "mg/kg/day"},
      {"measurement": "LOAEL", "setting": "rat [6]; [22]", "value": 250, "unit": "mg/kg/day"},
      {"measurement": "NEL", "setting": "rat [6]; [23]", "value": 48.9, "unit": "mg/kg/day"},
      {"measurement": "NOAEL", "setting": "rat [6]; [23]", "value": 48.9, "unit": "mg/kg/day"},
      {"measurement": "LOAEL", "setting": "dog [7]; [14]", "value": 32, "unit": "mg/kg/day"},
      {"measurement": "NEL", "setting": "dog [7]; [24]", "value": 14, "unit": "mg/kg/day"},
      {"measurement": "NOAEL", "setting": "dog [7]; [24]", "value": 14, "unit": "mg/kg/day"},
      {"measurement": "LEL", "setting": "dog [7]; systemic / in life observation / body weight / body weight gain + systemic / in life observation / food consumption / food consumption", "value": 32, "unit": "mg/kg/day"},
      {"measurement": "LEL", "setting": "rat [8]; group: offspring, developmental / developmental landmark / preputial separation / preputial separation", "value": 17.9, "unit": "mg/kg/day"},
      {"measurement": "LOAEL", "setting": "rat [8]; [25]", "value": 51, "unit": "mg/kg/day"},
      {"measurement": "NEL", "setting": "rat [8]; [25]", "value": 6.5, "unit": "mg/kg/day"},
      {"measurement": "NOAEL", "setting": "rat [8]; [25]", "value": 17.9, "unit": "mg/kg/day"},
      {"measurement": "LOAEL", "setting": "rat [8]; [26]", "value": 51, "unit": "mg/kg/day"},
      {"measurement": "NEL", "setting": "rat [8]; [26]", "value": 6.5, "unit": "mg/kg/day"},
      {"measurement": "NOAEL", "setting": "rat [8]; [26]", "value": 17.9, "unit": "mg/kg/day"},
      {"measurement": "LEL", "setting": "rat [8]; group: parental, systemic / in life observation / body weight / body weight gain", "value": 17.9, "unit": "mg/kg/day"},
      {"measurement": "LEL", "setting": "rat [8]; [27]", "value": 51, "unit": "mg/kg/day"},
      {"measurement": "LOAEL", "setting": "rat [8]; [27]", "value": 51, "unit": "mg/kg/day"},
      {"measurement": "NEL", "setting": "rat [8]; [27]", "value": 17.9, "unit": "mg/kg/day"},
      {"measurement": "NOAEL", "setting": "rat [8]; [27]", "value": 17.9, "unit": "mg/kg/day"},
      {"measurement": "LEL", "setting": "rat [9]; [28]", "value": 7.1, "unit": "mg/kg/day"},
      {"measurement": "NEL", "setting": "rat [9]; [28]", "value": "< 7.1", "unit": "mg/kg/day"},
      {"measurement": "LOAEL", "setting": "rat [9]; systemic / pathology microscopic / liver / vacuolization", "value": 17.5, "unit": "mg/kg/day"},
      {"measurement": "NOAEL", "setting": "rat [9]; systemic / pathology microscopic / liver / vacuolization + systemic / in life observation / body weight / body weight + systemic / in life …", "value": 7.1, "unit": "mg/kg/day"},
      {"measurement": "LOAEL", "setting": "dog [10]; systemic / in life observation / body weight / body weight + systemic / in life observation / body weight / body weight gain", "value": 55, "unit": "mg/kg/day"},
      {"measurement": "LEL", "setting": "dog [10]; [29]", "value": 55, "unit": "mg/kg/day"},
      {"measurement": "NEL", "setting": "dog [10]; [29]", "value": 20, "unit": "mg/kg/day"},
      {"measurement": "NOAEL", "setting": "dog [10]; [29]", "value": 20, "unit": "mg/kg/day"},
      {"measurement": "LEL", "setting": "rat [11]", "value": 50.8, "unit": "mg/kg/day"},
      {"measurement": "LOAEL", "setting": "rat [11]", "value": 50.8, "unit": "mg/kg/day"},
      {"measurement": "NEL", "setting": "rat [11]", "value": 12.4, "unit": "mg/kg/day"},
      {"measurement": "NOAEL", "setting": "rat [11]", "value": 12.4, "unit": "mg/kg/day"}
    ]}
  ]
}
